Source: the NIST ThermoML archive (doi:10.1021/acs.jced.5b00936)

Experiments:
[1] = for Triple point temperature: Crystal, DSC; for viscosity / mass density: 100 kPa, Liquid; for viscosity: Concentric cylinders viscometry; for mass density: Vibrating tube method
[2] = refractive index (Na D-line) (dimensionless); conditions: 100 kPa, Liquid, Standard Abbe refractometry

CCCC[P+](CCCC)(CCCC)CCCC.O=S(=O)([O-])CC(O)CNC(CO)(CO)CO
Conditions	Triple point temperature [K]
[1]	369.15

CCCC[N+](CCCC)(CCCC)CCCC.O=S(=O)([O-])CC(O)CN1CCOCC1 [tetrabutylammonium 2-hydroxy-3-morpholinopropanesulfonate]
Conditions	mass density, [1] [kg/m3]	refractive index, [2]	viscosity, [1] [mPa·s]
308.15 K	1051.2	1.48328	34148
313.15 K	1048.2	1.48188	18392
318.15 K	1045.3	1.48038	10603
323.15 K	1042.3	1.47873	6381.1
328.15 K	1039.4	1.47693	3976.3
333.15 K	1035.8	1.47525	2571.7
338.15 K	1033.1	1.47377	1702.9
343.15 K	1030.4	1.47242	1158.3
348.15 K	1027.6	1.47111	807.1
353.15 K	1024.7	1.46984	574.9

CCCC[N+](CCCC)(CCCC)CCCC.O=S(=O)([O-])CC(O)CNC1CCCCC1
Conditions	mass density, [1] [kg/m3]	refractive index, [2]	viscosity, [1] [mPa·s]
308.15 K	1020.4	1.48329	41227
313.15 K	1017.3	1.48189	22114
318.15 K	1014.4	1.48037	12579
323.15 K	1011.5	1.47937	7480.4
328.15 K	1008.6	1.47772	4609.3
333.15 K	1005.7	1.47617	2935.7
338.15 K	1002.8	1.47449	1926.8
343.15 K	999.9	1.47291	1299.4
348.15 K	997.2	1.47137	898.5
353.15 K	994.3	1.46985	635.7

CCCC[P+](CCCC)(CCCC)CCCC.O=S(=O)([O-])CCN(CCO)CCO
Conditions	mass density, [1] [kg/m3]	refractive index, [2]	viscosity, [1] [mPa·s]
288.15 K	1066.8	1.49778	41313
293.15 K	1063.9	1.4964	24078
298.15 K	1061	1.49502	14082
303.15 K	1058.1	1.49365	8504.9
308.15 K	1055.3	1.49333	5315.8
313.15 K	1052.4	1.49198	3370.9
318.15 K	1049.6	1.49061	2199.4
323.15 K	1046.8	1.48921	1356.9
328.15 K	1044	1.48744	871
333.15 K	1041.2	1.4859	611.8
338.15 K	1038.4	1.48437	458.9
343.15 K	1035.6	1.48287	352.3
348.15 K	1032.8	1.48142	273.6
353.15 K	1030.1	1.48003	214.5

CCCC[N+](CCCC)(CCCC)CCCC.O=S(=O)([O-])CC(O)CNC(CO)(CO)CO
Conditions	Triple point temperature [K]
[1]	364.15

CCCC[P+](CCCC)(CCCC)CCCC.O=S(=O)([O-])CC(O)CN1CCOCC1 [tetrabutylphosphonium 2-hydroxy-3-morpholinopropanesulfonate]
Conditions	mass density, [1] [kg/m3]	refractive index, [2]	viscosity, [1] [mPa·s]
288.15 K	1062.9	1.4959	22869
293.15 K	1059.9	1.49447	12430
298.15 K	1056.8	1.49299	7312.9
303.15 K	1053.7	1.49152	4493.6
308.15 K	1050.5	1.48999	2859.8
313.15 K	1047.5	1.48836	1889.2
318.15 K	1044.4	1.4866	1277
323.15 K	1041.3	1.48573	886.7
328.15 K	1038.2	1.4841	630.4
333.15 K	1035.1	1.48239	457.8
338.15 K	1032.1	1.48069	339.2
343.15 K	1029.1	1.47908	255.6
348.15 K	1026.2	1.47761	195.8
353.15 K	–	1.47622	152.3
